# US12624027B2, “Salts and polymorphic forms of 6-chloro-7-(4-(4-chlorobenzyl)piperazin-1-yl)-2-(1,3-dimethyl-1H-pyrazol-4-yl)-3H-imidazo[4,5-b]pyridine” (ELLIPSES PHARMA LTD, priority 2020, dated 2026)
# Key:
# hERG = hERG (Homo sapiens, UniProt Q12809); conditions: cited from earlier work
# Aurora C = target: T1, Aurora C (Homo sapiens, UniProt Q9UQB9); conditions: cited from earlier work
# T1 sequence (Q9UQB9 1-309): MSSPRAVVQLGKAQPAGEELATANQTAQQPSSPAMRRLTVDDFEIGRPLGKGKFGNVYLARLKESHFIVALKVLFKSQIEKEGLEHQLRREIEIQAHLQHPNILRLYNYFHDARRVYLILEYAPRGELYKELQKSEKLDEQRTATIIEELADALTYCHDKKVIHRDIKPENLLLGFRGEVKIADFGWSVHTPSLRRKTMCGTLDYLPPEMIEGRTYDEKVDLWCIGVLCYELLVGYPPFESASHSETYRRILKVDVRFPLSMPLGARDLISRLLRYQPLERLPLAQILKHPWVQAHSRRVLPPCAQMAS
# Aurora A = target: T2, Aurora A (Homo sapiens, UniProt O14965); conditions: cited from earlier work
# T2 sequence (O14965 1-403): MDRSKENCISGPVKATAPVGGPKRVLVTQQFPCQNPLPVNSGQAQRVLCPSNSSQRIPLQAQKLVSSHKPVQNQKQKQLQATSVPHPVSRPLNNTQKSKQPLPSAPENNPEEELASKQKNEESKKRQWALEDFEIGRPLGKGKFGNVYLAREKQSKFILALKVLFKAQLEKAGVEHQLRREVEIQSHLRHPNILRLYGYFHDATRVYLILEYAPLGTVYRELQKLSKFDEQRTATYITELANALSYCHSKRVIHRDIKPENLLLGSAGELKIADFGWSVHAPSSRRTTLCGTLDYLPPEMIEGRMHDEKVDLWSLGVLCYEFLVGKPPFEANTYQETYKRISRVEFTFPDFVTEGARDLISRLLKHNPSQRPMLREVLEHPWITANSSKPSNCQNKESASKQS
# FLT3 = target: T3, FLT3 (Homo sapiens, UniProt P36888); conditions: cited from earlier work
# T3 sequence (P36888 27-993): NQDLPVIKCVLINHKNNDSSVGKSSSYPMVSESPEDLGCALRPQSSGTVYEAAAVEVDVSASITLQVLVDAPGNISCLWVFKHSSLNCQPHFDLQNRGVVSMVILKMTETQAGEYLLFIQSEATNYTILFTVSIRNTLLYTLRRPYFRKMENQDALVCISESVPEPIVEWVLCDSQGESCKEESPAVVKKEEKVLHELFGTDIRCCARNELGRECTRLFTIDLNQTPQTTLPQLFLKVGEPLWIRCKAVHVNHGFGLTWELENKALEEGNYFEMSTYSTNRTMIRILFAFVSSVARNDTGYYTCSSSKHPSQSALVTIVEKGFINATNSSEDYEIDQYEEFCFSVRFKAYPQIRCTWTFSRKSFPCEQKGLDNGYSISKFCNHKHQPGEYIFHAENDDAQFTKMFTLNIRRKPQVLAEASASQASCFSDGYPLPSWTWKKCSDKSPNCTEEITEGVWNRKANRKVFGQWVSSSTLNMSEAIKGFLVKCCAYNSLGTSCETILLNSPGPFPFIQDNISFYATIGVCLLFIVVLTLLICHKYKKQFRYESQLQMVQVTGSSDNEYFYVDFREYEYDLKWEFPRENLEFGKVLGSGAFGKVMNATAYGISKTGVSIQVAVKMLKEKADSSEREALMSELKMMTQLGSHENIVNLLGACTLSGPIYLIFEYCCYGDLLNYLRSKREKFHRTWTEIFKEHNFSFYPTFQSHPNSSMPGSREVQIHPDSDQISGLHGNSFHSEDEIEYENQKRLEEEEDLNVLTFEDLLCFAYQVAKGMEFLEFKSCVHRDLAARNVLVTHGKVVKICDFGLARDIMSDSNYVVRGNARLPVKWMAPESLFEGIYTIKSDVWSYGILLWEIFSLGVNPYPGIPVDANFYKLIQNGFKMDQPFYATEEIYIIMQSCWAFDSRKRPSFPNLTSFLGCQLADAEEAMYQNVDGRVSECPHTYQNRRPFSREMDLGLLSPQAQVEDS
# [1] = Thermodynamic solubility assessment in biological media (FaSSIF, FeSSIF, FaSSGF), HPLC of mother liquors; format: physicochemical; conditions: listed as Compound A free base
# Experimental: The thermodynamic solubility of Compound A free base, Compound A fumarate Form 1 and Compound A hemi-fumarate Form 3 was assessed in 3 biological media: Fasted State Simulated Intestinal Fluid (FaSSIF); Fed State Simulated Intestinal Fluid (FeSSIF) and Fasted State Simulated Gastric Fluid (FaSSGF).
# The following procedure was carried out. Approximately 10 mg of material was weighed into 3×1.5 mL glass vials. 0.02 mL aliquots of appropriate buffer were added to each vial until a final concentration of 10 mg/mL was obtained. The samples were then filtered via centrifugation and the mother liquors analyzed by HPLC.
# Aurora B = Aurora B (Homo sapiens, UniProt Q96GD4); conditions: cited from earlier work
# Chain of Aurora B (Q96GD4 whole entry): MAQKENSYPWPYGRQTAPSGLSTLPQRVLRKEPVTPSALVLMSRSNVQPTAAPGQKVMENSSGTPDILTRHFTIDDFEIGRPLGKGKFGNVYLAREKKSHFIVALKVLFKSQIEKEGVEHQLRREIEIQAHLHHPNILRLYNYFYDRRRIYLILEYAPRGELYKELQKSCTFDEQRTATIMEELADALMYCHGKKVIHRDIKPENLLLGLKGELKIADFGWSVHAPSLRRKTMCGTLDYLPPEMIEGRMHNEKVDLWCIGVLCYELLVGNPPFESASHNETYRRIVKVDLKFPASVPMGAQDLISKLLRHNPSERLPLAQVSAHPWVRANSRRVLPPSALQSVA
# cytochrome P450 = conditions: cited from earlier work
# Chain of hERG (Q12809 whole entry): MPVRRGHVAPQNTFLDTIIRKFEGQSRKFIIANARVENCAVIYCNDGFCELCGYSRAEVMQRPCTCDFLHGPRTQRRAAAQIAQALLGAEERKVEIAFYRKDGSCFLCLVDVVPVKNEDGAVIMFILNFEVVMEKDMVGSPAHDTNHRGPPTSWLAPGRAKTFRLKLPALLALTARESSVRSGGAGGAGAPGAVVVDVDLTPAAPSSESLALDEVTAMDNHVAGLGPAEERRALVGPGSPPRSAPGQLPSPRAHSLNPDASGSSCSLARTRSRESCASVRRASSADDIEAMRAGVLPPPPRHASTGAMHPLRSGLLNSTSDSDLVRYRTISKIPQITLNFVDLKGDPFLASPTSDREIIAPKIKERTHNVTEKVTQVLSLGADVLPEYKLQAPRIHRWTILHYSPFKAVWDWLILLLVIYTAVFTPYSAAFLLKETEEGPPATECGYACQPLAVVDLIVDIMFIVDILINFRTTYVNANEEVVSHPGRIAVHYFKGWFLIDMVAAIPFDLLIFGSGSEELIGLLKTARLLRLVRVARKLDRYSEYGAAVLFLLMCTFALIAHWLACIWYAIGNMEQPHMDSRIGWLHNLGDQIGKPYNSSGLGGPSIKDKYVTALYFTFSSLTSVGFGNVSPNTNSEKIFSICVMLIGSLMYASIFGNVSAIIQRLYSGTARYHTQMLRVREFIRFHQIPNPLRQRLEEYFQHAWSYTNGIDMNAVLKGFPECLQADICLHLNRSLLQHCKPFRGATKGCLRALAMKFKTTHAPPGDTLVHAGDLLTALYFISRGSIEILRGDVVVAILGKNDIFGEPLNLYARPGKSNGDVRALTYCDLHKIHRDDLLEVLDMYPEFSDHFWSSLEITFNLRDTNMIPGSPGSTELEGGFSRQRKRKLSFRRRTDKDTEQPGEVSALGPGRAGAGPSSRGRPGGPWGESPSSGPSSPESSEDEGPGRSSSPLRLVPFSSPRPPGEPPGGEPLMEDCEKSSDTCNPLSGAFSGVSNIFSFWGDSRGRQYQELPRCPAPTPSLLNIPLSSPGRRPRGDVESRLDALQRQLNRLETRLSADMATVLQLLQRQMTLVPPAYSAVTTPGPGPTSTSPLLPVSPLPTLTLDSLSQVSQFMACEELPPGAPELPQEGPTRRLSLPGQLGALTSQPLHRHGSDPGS
smiles,measurement,setting,value
"Cc1nn(C)cc1-c1nc2c(N3CCN(Cc4ccc(Cl)cc4)CC3)c(Cl)cnc2[nH]1 [Compound A, 6-chloro-7-(4-(4-chlorobenzyl)piperazin-1-yl)-2-(1,3-dimethyl-1H-pyrazol-4-yl)-3H-imidazo[4,5-b]pyridine]",interaction with hERG,hERG,minimal interaction
same,activity against Aurora C kinase,Aurora C,high activity
same,activity against Aurora A kinase,Aurora A,high activity
same,activity against FLT3 kinase,FLT3,high activity
same,Concentration (thermodynamic solubility),[1]; FaSSGF pH 1.6,1.5 mg/mL
same,Concentration (thermodynamic solubility),[1]; FaSSIF pH 6.5,<0.1 mg/mL
same,Concentration (thermodynamic solubility),[1]; FeSSIF pH 5.0,<0.1 mg/mL
same,activity against Aurora B kinase,Aurora B,high activity
same,interaction with cytochrome P450 activity,cytochrome P450,minimal interaction
